What was measured:
CHO cells = settings: cited from earlier work
[1] = tested on: HEK293 cells expressing rAAV9 particles; test: Effect of NaCl and/or sodium propionate on rAAV9 yield, microscale bioreactors (Example 5); assay type: cell-based, human; settings: effects of other conditions averaged
Procedure: The effect of sodium chloride and sodium propionate (NaPr) (ThermoFisher Scientific) on rAAV yield in a suspension culture of HEK293 cells expressing rAAV9 particles encapsidating a transgene. HEK293 cells were seeded at 1×10e6 viable cell/ml density in advanced microscale bioreactors. The medium comprised 100 mM NaCl. At 48 hrs ECD (Elapsed Culture Duration), the cells were transfected with a mixture of polyethylenimine and 3 plasmids encoding adeno-virus helper functions, transgene and AAV 2/9 Rep/Cap. 4, 20, or 36 hours after transfection, NaCl, NaPr, anti-clump, EFC+, and/or Na valproate was added to the cultures. Conditions tested were 0, 30 mM and 60 mM NaCl, 0, 2 mM and 4 mM NaPr. Multiple conditions were tested using a Design of Experiment approach. The supernatant of the cultures was harvested at […], i.e., 5 days post-transfection. rAAV yields were obtained. […] Resulting titer improvement by adding NaCl and/or NaPr is shown in FIG. 3 where the effects of other tested conditions are averaged. […] The observed ˜2-fold increase is higher than what would be expected if the effect of NaPr and increased NaCl were additive.

[2] = tested on: recombinant IgG production; settings: alone; small culture conditions less than 50 L; cited from earlier work
[3] = tested on: HEK293 cells expressing AAV8 particles; test: Large scale (50 liter) rAAV production using NaCl enhancer (Example 3); assay type: cell-based, human; settings: 50 liter culture; NaCl increased by 60 mM 24 hours post transfection
Procedure: The effect of NaCl on rAAV yield was tested in 50 liter cultures of HEK293 cells expressing AAV8 particles encapsidating a transgene. HEK suspension cultures were grown using standard processes. Cells were diluted to ˜4×10e6 viable cells. The medium used included 100 mM NaCl. Cells were transfected 24 hours post dilution with a mixture of polyethylenimine and 3 plasmids encoding adeno-virus helper functions, transgene and AAV […]. 24 hours post transfection, sufficient NaCl was added to increase the final NaCl concentration by 60 mM. (i.e., the final NaCl concentration was ˜160 mM). Supernatant was harvested on day 4 post transfection. The processes yielded 1×10e+11 genome copy (GC)/ml and 9×10e+10. This is ˜2-fold higher than the yield of the same process without the increase in NaCl concentration following transfection.

CCC(=O)O [propionic acid]
production of recombinant B-domain deleted factor VIII (CHO cells): enhanced production

CCC(=O)[O-].[Na+] [sodium propionate]
increase in the titer ([1]; 2 mM sodium propionate in the absence of increased NaCl): ~1.5 fold
effect on recombinant IgG production [2]: no strong effect alone

[Cl-].[Na+] [NaCl, sodium chloride]
yield relative to the same process without the increase in NaCl concentration [3]: ~2 fold
increase in the titer ([1]; increased NaCl in the absence of sodium propionate): ~1.2 fold

CCCC(=O)O [butyric acid]
cell growth (CHO cells): inhibited cell growth
production of recombinant B-domain deleted factor VIII (CHO cells): enhanced production

— patent US12612644B2, “Scalable method for recombinant AAV production” (REGENXBIO Inc., priority 2018, dated 2026)
